Patent US20260083723A1, “THERAPEUTIC AGENT OR PROPHYLACTIC AGENT FOR AMYOTROPHIC LATERAL SCLEROSIS” (Toray Industries, Inc., priority 2022, published 2026)

What was measured:
[1] = tested on: Human fibrosarcoma cells (HT-1080 cells); test: In vitro inhibitory action against ferroptosis (Erastin-induced cell death, Cell Counting Kit-8); format: cell-based; conditions: Evaluation concentration 30 μmol/L, Erastin 3 μmol/L, 24 hours
Procedure: The inhibitory action against ferroptosis of the tetrahydroquinoline derivative (I) or a pharmaceutically acceptable salt thereof was evaluated with Human fibrosarcoma cells (HT-1080 cells), by using, as an index, the inhibitory action against the cell death induced by treatment with a ferroptosis inducer, Erastin.
HT-1080 cells (ATCC) were cultured in a mixture (hereinafter referred to as vehicle) composed of DMEM/F12 (Thermo Fisher Scientific, Inc.), a final concentration of 10% fetal bovine serum (Thermo Fisher Scientific, Inc.), and a final concentration of 1% penicillin-streptomycin solution (Nacalai Tesque, Inc.). Cells were seeded into 96-well plates (Corning Inc.) at 5×10^4 cells/well and cultured overnight.
A test compound was dissolved in DMSO, and the resulting solution was diluted in the vehicle to a final concentration of 1% DMSO and then used. […] Twenty-four hours after the addition of Erastin, 5 μL of Cell Counting Kit-8 (Dojindo Laboratories) was added to each well and incubated for 4 hours, and the absorbance at 450 nm was then measured for each well (N=2). The average absorbance value at 450 nm was calculated from the absorbance values of the wells, and the inhibition rate of ferroptosis by the test compound (hereinafter referred to as ferroptosis inhibition rate, %) was then calculated based on Equation 1.

[2] = In vitro radical scavenging action (DPPH method); conditions: 1.2-100 μmol/L, 30 minutes at room temperature, absorbance at 517 nm
Procedure: The radical scavenging action of a test compound can be evaluated using an in vitro test and, for example, by a method (Antioxidants, 2019, vol. 258) using a stable radical, 1,1-diphenyl-2-picrylhydrazil (DPPH).
Radical scavenging action was evaluated using the DPPH method in the compound of Comparative Example 1, which is a tetrahydroquinoxaline derivative, and in the tetrahydroquinoline derivative (I) or a pharmaceutically acceptable salt thereof. The DPPH method was performed using an antioxidant capacity measurement kit (Dojindo Laboratories).
A test compound was dissolved in DMSO, and the resulting solution was then mixed with an assay buffer and a DPPH solution, which are included in the kit, to a total volume of 200 μL to obtain a final concentration of 10% DMSO, and the reaction was allowed to proceed. Wells added with […] ferrostatin-1, a radical scavenger, were grouped as “control,” and wells not added with test compound were grouped as “background”. The test compound was serially diluted 3-fold starting from a maximum concentration of 100 μmol/L, and the diluted test compound (1.2, 3.7, 11.1, 33.3, or 100 μmol/L) was added and allowed to react at room temperature. Thirty minutes after the reaction, the absorbance at 517 nm was measured, and the average absorbance value was calculated (N=2). The radical scavenging action of the test compound (hereinafter referred to as radical scavenging rate, %) was calculated based on Equation 2. The EC50 value of the test compound was calculated from the radical scavenging rate.
A note “no detection of radical scavenging action (N.D.),” is given to compounds with a EC50 of >100 μmol/L.

[3] = tested on: superoxide dismutase 1 (SOD1) G93A transgenic mice; test: Assessment of motor dysfunction in amyotrophic lateral sclerosis model mouse (hind limb extension test); format: in vivo
Procedure: The effect of the tetrahydroquinoline derivative (I) or a pharmaceutically acceptable salt thereof on the onset of a motor dysfunction in superoxide dismutase 1 (SOD1) G93A transgenic mice that are amyotrophic lateral sclerosis model mice was tested. The tetrahydroquinoline derivative (I) or a pharmaceutically acceptable salt thereof was evaluated using the compound of Example 1. The amyotrophic lateral sclerosis model mice used were transgenic mice overexpressing human superoxide dismutase 1 (SOD1) with G93A mutation (Jackson Laboratories #004435). Male transgenic mice and wild-type female C57BL/6J mice from Charles River were mated. The tail tips of the born offspring mice were used for genotyping. The obtained male transgenic mice were used for the evaluation. The test substance (compound of Example 1) was prepared as a suspension with the required concentration (10 mg/mL) using 0.5 w/v % methylcellulose as the vehicle, and was administered repeatedly and orally, once daily, five times a week, at a dosing volume of 10 mL/kg, or 100 mg/kg, starting at 56 days of age and continuing for 10 weeks (50 doses in total) until the mice reached 126 days of age. A group administered repeatedly and orally with the compound of Example 1 was termed the “Example 1” group (n=9). In addition, a group administered with 0.5 w/v % methylcellulose in the same volume, frequency, and method as the compound of Example 1 was termed the “vehicle” group (n=6). Whenever possible, litters were divided into both groups. Starting from the beginning of administration, a hind limb extension test was conducted before each dose to evaluate the motor function. […] The hind limb extension test was performed five times a week.

Compound	EC50 [2]	also measured
7-fluoro-(1H-pyrazol-4-yl)-1,2,3,4-tetrahydroquinoline [Example 140]		Ferroptosis inhibition rate (%) [1]: 72.81%
O=C(Cc1ccc2c(c1)CCC(c1ccccc1)N2)N1CCNCC1 (stereo not drawn) [Example 158, 2-(2-phenyl-1,2,3,4-tetrahydroquinolin-6-yl)-1-(piperazin-1-yl)ethan-1-one]	> 100 µM	
O=C(Cc1ccc2c(c1)CCC(c1ccccc1)N2)N1CC(F)(F)C1 (stereo not drawn) [Example 160, 1-(3,3-difluoroazetidin-1-yl)-2-(2-phenyl-1,2,3,4-tetrahydroquinolin-6-yl)ethan-1-one]	> 100 µM	
O=C(Cc1ccc2c(c1)CCC(c1ccccc1)N2)N1CC(F)(F)C1 (stereo not drawn) [Example 161, 1-(3,3-difluoroazetidin-1-yl)-2-(2-phenyl-1,2,3,4-tetrahydroquinolin-6-yl)ethan-1-one]	> 100 µM	

The next lines start with results.

EC50 [2]	Compound	also measured
> 100 µM	Cl.c1ccc(C2CCc3ccccc3N2)cc1 (stereo not drawn) [Example 1, 2-phenyl-1,2,3,4-tetrahydroquinoline hydrochloride]	median value of the onset age in days ([3]; 100 mg/kg orally once daily, five times a week, from 56 days of age for 10 weeks, male SOD1 G93A transgenic mice, n=9): 121.0 days of age; age of onset in days vs vehicle group, log-rank (Mantel-Cox) test p ([3]; 100 mg/kg orally once daily, five times a week, from 56 days of age for 10 weeks, significantly higher than vehicle group): < 0.05; effect on onset of motor dysfunction in amyotrophic lateral sclerosis model mice (in words) ([3]; compared to the vehicle group): delay the onset
> 100 µM	O=C1CN(C(=O)Cc2ccc3c(c2)CCC(c2ccccc2)N3)CCN1 (stereo not drawn) [Example 157]	
